Experimental data as given in article PMC6290777, “Inhalation of the prodrug PI3K inhibitor CL27c improves lung function in asthma and fibrosis” (Nature Communications, 2018).

Tests used:
[1] = test system: glucocorticoid-resistant neutrophilic asthma; assay: Glucocorticoid-resistant asthma model; type: in vivo, BALB/c mice; settings: CL27c 2 mg/ml aerosol
Experimental: (§1) BALF was performed to obtain leukocytes from alveolar space. The trachea was exposed and a 1.7-mm-outside-diameter polyethylene catheter was inserted. BAL was performed by washing the lungs three-times with three different 500 µl aliquots of PBS. BALF samples were centrifuged at 600 × g for 10 min at 4 °C on a histology glass slide and stained with Diff Quick (MICROPTIC, #DQ-ST). The number of leukocytes and differential counts of different population were obtained evaluating the percentage leukocyte populations over the total cell number.
Mice were anesthetized with a subcutaneous injection of ketamine and xylazine (130 mg/Kg ketamine and 8.5 mg/Kg xylazine) to maintain spontaneous breathing under anesthesia. Mice were tracheostomized, placed in a body plethysmograph and connected to a computer-controlled ventilator (Forced Pulmonary Maneuver System®, Buxco Research Systems©, Wilmington, North Carolina USA). First, an average breathing frequency of 160 breaths/min was imposed to the anesthetized animal by a pressure-controlled ventilation until a regular breathing pattern and complete expiration at each breathing cycle was obtained. Under mechanical respiration, respiratory flow and airway pressure were measured to compute dynamic compliance (Cdyn) and lung resistance (RL). To measure the TLC, pressure–volume maneuvers were performed, where lungs were inflated to a standard pressure of +30 cm H2O and then let slowly exhale until a negative pressure of −30 cm H2O was reached. To measure the FEV Fast-Flow Volume maneuvers was performed. In this maneuver, lungs were first inflated to +30 cm H2O (TLC) and, immediately, a negative pressure (−30 cm H2O) was applied in order to enforce expiration. To evaluate AHR, the same mice used in previous maneuvers (basal condition) received Metacholine, 1 mg/Kg (Acetyl-β-methylcholine chloride, A-2251, Sigma-Aldrich St.Louis, MO,USA) i.v., and 20 sec after, a new set of maneuvers were conducted to assess RL changes. Suboptimal maneuvers were rejected and for each test in every single mouse at least three acceptable maneuvers were conducted to obtain a reliable mean for all numeric parameters.
(§2) IL-5, IL-13, eotaxin, TGF-β, KC, IL-17A, and MCP-1 levels in the BALF and anti-OVA IgE levels in serum were measured by ELISA technique using commercial DuoSet kits R&D Systems according to the instructions of the manufacturer. Results were expressed in levels of cytokines per ml of […] (pg/ml) or arbitrary units (A.U.).
On day 1 BALB/c mice received systemic immunization by subcutaneous injection of 20 µg of chicken egg ovalbumin (OVA grade V, >98% pure; Sigma, St Louis, MO) in saline, emulsified in 75 µL CFA (Complete Freund’s Adjuvant; Sigma-Aldrich) (Figure 5)[52]. On days 25–28 mice were exposed to aerosolised ovalbumin (1% in saline) for 20 min per day. Mice were exposed during 30 min to aerosolized CL27c (2 mg/ml dissolved in 0.5 % tylaxopol/saline solution) or vehicle (0.5% tyloxapol/saline solution), or to systemic treatment with dexamethasone (5 mg/kg i.p. injection). Untreated control groups included mice challenged with PBS alone. On day 29, mice were sacrificed, and samples were collected for further analysis.
The left lung was removed and fixed in 4% neutral phosphate-buffered formalin (pH 7.4)[10]. The tissues were dehydrated gradually in ethanol, embedded in paraffin, cut into 4 µm sections, stained with H&E, Gomori’s trichrome and periodic acid schiff (PAS), and examined under light microscopy by a pathologist in a double blinded manner. Images of lung sections were captured with a digital camera (Optronics DEI-470) connected to a microscope (Olympus IX70) with a magnification of ×40 or ×100. Inflammation was scored according to modification of existing protocols[53] and to the histopathology criteria reported in Supplementary Table 4.

[2] = test system: OVA-induced acute allergic asthma; assay: OVA-induced acute allergic asthma model; type: in vivo, BALB/c mice
Experimental: On Days 1 and 14, BALB/c mice (6–8 weeks) received an intraperitoneal injection (i.p.) of a solution containing 0.5 mg/ml OVA and 5 mg/ml Alum (described in Fig. 2). Untreated controls were injected with a solution of 5 mg/ml Alum. […] Untreated control groups included mice challenged with PBS alone. On day 29, mice were sacrificed, and samples were collected for further analysis.
as §1, §2
Immunohistochemistry for CD18 was performed using the streptavidin-biotin-peroxidase method in formalin-fixed, paraffin-embedded tissue sections (5 µm thick) mounted on poly-L-lysine-coated microscope slides. Lung cross-sections were deparaffinized and rehydrated through xylene and graded alcohols. After antigen retrieval, endogenous peroxidase was blocked (15 min) with 3% (v/v) hydrogen peroxide and washed in phosphate-buffered saline (PBS). Sections were incubated overnight (4 °C) with primary rabbit anti-CD18 antibody (Acris Antibodies GmbH, Germany, Cat. Number B0842-1) diluted 1:400 in PBS plus bovine serum albumin (PBS-BSA) or rabbit anti/PAkt (S473) diluted 1:100 in PBS/BSA. The slides were then incubated with biotinylated goat anti-rabbit antibody (Dako Agilent Pathology Solution, USA) diluted 1:1000 in PBS/BSA. After washing, the slides were incubated with avidin-biotin-horseradish peroxidase conjugate (Dako Agilent Pathology Solution, USA) for 30 min, according to the manufacturer’s instructions. CD18 and PAkt-positive cells were visualized with the chromogen 3,3′-diaminobenzidine (DAKO liquid DAB + substrate chromogen system, CA, USA). Slides were counterstained with Harry’s hematoxylin, dehydrated in a graded alcohol series, cleared in xylene, and cover slipped.
Lung, liver, and heart samples were collected for western blot detection of akt phosphorilation levels. Protein samples were resolved by 10% SDS-PAGE and transferred on to PVDF (Immobilon™-P) membranes. The membranes were blocked with 5% BSA in 1x TBS with 0.3% Tween 20 for 30 min at […]. Then, the membranes were incubated overnight at 4 °C with primary antibodies (phosphorylated Akt serine 473, 1:1000, Cell Signaling Technology, Cat. Number 4060) and 1 h with HRP-conjugated secondary antibody (1:10000). The blots were visualized in ECL solution for 1 min and images were captured on Luminescent Image Analyser (ChemiDoc Imaging Systems, Bio-Rad Laboratories, USA). For loading control, the blots were striped and reassessed with pan Akt (1:1000) antibody. For quantification, specific phosphorylation was calculated as the ratio of signals for phosphorylated Akt to the signal of total Akt detected. Values of unstimulated samples were set to 1.0. Uncropped scans of the most important blots are provided as a supplementary figure in the Supplementary Information (Supplementary Fig. 15).

Question: How did the “abundance of cytokines (MCP-1, IL-17A, KC, Eotaxin, IFN-γ)” value [1] turn out when `COC(=O)c1cccc(Cn2cc(-c3cccc4c(=O)cc(N5CCOCC5)[nH]c34)nn2)c1` [CL27c] was run?
Answer: Its value is “could not block systemic production of these mediators”.

Question: What about the “airway hyperreactivity and lung resistance” value ([1]; dexamethasone 5 mg/kg i.p.) of the same compound?
Answer: The value was “without modifying either airway hyperreactivity or lung resistance”.

Question: And the “histopathology: overall score of lung damage / tissue inflammation” value ([1]; dexamethasone 5 mg/kg i.p.)?
Answer: The value was “significantly reduce the overall score of lung damage”.

Question: And the “lung compliance (Cdyn)” value ([1]; dexamethasone 5 mg/kg i.p.)?
Answer: Its value is “restored normal lung compliance”.

Question: What about the “number of inflammatory cells in BALF” value ([1]; dexamethasone 5 mg/kg i.p.) of the same compound?
Answer: Its value is “reduce the number of inflammatory cells in BALF”.

Question: What about the “TGF-β in lung tissue lysates” value ([2]; OVA-challenged mice as described in Fig. 2, inhaled CL27c) of the same compound?
Answer: Its value is “reduction of transforming growth factor-β (TGF-β) and IL-13 to the level detected in unsensitized controls”.

Question: And the “IL-10 in lung tissue lysates” value ([2]; OVA-challenged mice as described in Figure 2, inhaled CL27c)?
Answer: Its value is “increased pulmonary abundance of IL-10”.

Question: And the “efficacy on OVA-induced acute asthma” value ([2]; highest dose, 20 mg/ml)?
Answer: Its value is “inconsistent outcomes”.

Question: And the “IL-5 and IL-13 levels in lung tissue” value ([2]; inhaled CL27c 2 mg/ml)?
Answer: The value was “restored both IL-5 and IL-13 to the levels detected in unsensitized control mice”.

Question: What about the “reduction of eosinophils accumulation in BALF” value ([2]; inhaled CL27c 2 mg/ml) of the same compound?
Answer: Its value is 70%.

Question: And the “reduction of lymphocytes accumulation in BALF” value ([2]; inhaled CL27c 2 mg/ml)?
Answer: Its value is 72%.

Question: What about the “reduction of macrophages accumulation in BALF” value ([2]; inhaled CL27c 2 mg/ml) of the same compound?
Answer: Its value is 60%.

Question: And the “reduction of neutrophils accumulation in BALF” value ([2]; inhaled CL27c 2 mg/ml)?
Answer: The value was 68%.

Question: And the “Akt phosphorylation in lung lysates and sections” value ([2]; inhaled CL27c 2 mg/ml, day 29)?
Answer: Its value is “decrease in Akt phosphorylation”.

Question: What about the “CD18-positive leukocyte recruitment to the lung” value ([2]; inhaled CL27c 2 mg/ml, immunohistochemistry) of the same compound?
Answer: The value was “reduced leukocyte recruitment”.

Question: And the “efficacy on OVA-induced acute asthma” value ([2]; lowest dose, 0.2 mg/ml)?
Answer: The value was “no efficacy”.
